This passage reports IC50 results from PubChem BioAssay AID1053164 (Broad Institute, 2014).

The experiment has as its target Dihydrolipoyl dehydrogenase (Mycobacterium tuberculosis (strain ATCC 25618 / H37Rv)) (UniProt P9WHH9). The experiment is described as follows: Mycobacterium tuberculosis lipoamide dehydrogenase inhibition, DTNB colorimetric coupled assay, dose response confirmation, dry powder (AID 1053164). Conditions: Purified M. tb Lpd, DTNB colorimetric plate reader.

Where “and” joins values, the source holds several entries; their conditions need not be identical. Equal values may be shown once. Calls of active or inactive are those of the source. How the calls were made is not given here.

`CO[C@H]1CC[C@H]2CCN(C)C(=O)[C@@H](C)N(C)C(=O)c3ccc(F)nc3OC[C@@H]1O2`: the IC50 was > 100 µM (inactive). Next, `CO[C@H]1CC[C@H]2CC(=O)N(C)CCN(C)C(=O)c3cccc(C#N)c3OC[C@@H]1O2`: > 100 µM (inactive); `CO[C@H]1CC[C@H]2CCN(C)C(=O)[C@@H](C)N(C)C(=O)c3cc(Cl)cnc3OC[C@@H]1O2`: 25 µM; `CO[C@H]1CC[C@H]2CCN(C)C(=O)CCN(C)C(=O)c3cccc(C#N)c3OC[C@@H]1O2`: > 100 µM (inactive). Next, `CO[C@H]1CC[C@H]2CCN(C)C(=O)CN(C)C(=O)c3cccc(C#N)c3OC[C@@H]1O2`: > 100 µM (inactive). The same measure for `CO[C@H]1CC[C@H]2CCN(C)C(=O)CCCN(C)C(=O)c3cccc(C#N)c3OC[C@@H]1O2`: > 100 µM (inactive); for `CO[C@H]1CC[C@H]2CCN(C)C(=O)[C@@H](C(C)C)N(C)C(=O)c3cccc(C#N)c3OC[C@@H]1O2`: > 100 µM (inactive); for `CO[C@H]1CC[C@H]2CCN(C)C(=O)[C@H]3CCCN3C(=O)c3cccc(C#N)c3OC[C@@H]1O2`: > 100 µM (inactive). As for `CO[C@H]1CC[C@H]2CCN(C)C(=O)[C@@H](C)N(C)C(=O)c3cccc(C#N)c3OC[C@@H]1O2`, the IC50 was 6 µM and > 100 µM (inactive). With `CCCC[C@@H]1C(=O)N(C)CC[C@@H]2CC[C@H](OC)[C@H](COc3c(C#N)cccc3C(=O)N1C)O2`, the IC50 was > 100 µM (inactive).

On to `CO[C@H]1CC[C@H]2CCN(C)C(=O)[C@@H](c3ccccc3)N(C)C(=O)c3cccc(C#N)c3OC[C@@H]1O2`, for which the IC50 is > 100 µM (inactive).

Regarding `CO[C@H]1CC[C@H]2CCN(C)C(=O)[C@@H](C)N(C)C(=O)c3c(C(F)(F)F)ccnc3OC[C@@H]1O2`, the IC50 was > 100 µM (inactive).

With `CO[C@H]1CC[C@H]2CCN(C)C(=O)CCCN(C)C(=O)c3cccnc3OC[C@@H]1O2`, the IC50 is > 100 µM (inactive).

For the molecule `CO[C@H]1CC[C@H]2CCN(C)C(=O)[C@@H](Cc3ccccc3)N(C)C(=O)c3cccc(C#N)c3OC[C@@H]1O2`, the IC50 was > 100 µM (inactive). The same measure for `CO[C@H]1CC[C@H]2CCN(C)C(=O)[C@@H](C)N(C)C(=O)c3cccnc3OC[C@@H]1O2`: > 100 µM (inactive); for `CO[C@H]1CC[C@H]2CCN(C)C(=O)CCCN(C)C(=O)c3cc(Cl)cnc3OC[C@@H]1O2`: > 100 µM (inactive).
